The assay has as its system PMA-differentiated THP-1 cells. The experiment in a line: IL-1β production in PMA-differentiated THP-1 cells stimulated with gramicidin (hTHP-1 assay containing 2% fetal bovine serum; Procedures 1 and 2). It is filed as cell-based, human. Conditions: 2% fetal bovine serum. The essentials: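 Compound titrations in 0.37% final DMSO were added to THP-1 cells that had been plated after 16-18 h PMA treatment, 50,000 per well in 2% FBS. One hour later the cells received gramicidin (5 μM, 2 h) and were centrifuged. HTRF detected IL-1β in the collected supernatants.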

Where [1] appears, read: Homo sapiens, THP-1, Table B2, numeric bounds, read-out: hTHP-1 IC50.
Setting [2] is: Table B2, class symbols, read-out: hTHP-1 IC50.
Setting [3] is: Table B1, class symbols, read-out: Average IC50 of compounds in hTHP-1 assay: hTHP-1 IC50.
[4] abbreviates: Homo sapiens, THP-1, Table B2, class symbols, read-out: hTHP-1 IC50.
Setting [5] is: Table B3, hTHP-1 assay, class symbols, read-out: IC50.

Experimental findings from US20230031406A1, “COMPOUNDS AND COMPOSITIONS FOR TREATING CONDITIONS ASSOCIATED WITH NLRP ACTIVITY” (Novartis AG, priority 2018, published 2023) are described below.

Where two headings read alike, the source gives them in different places.

With `Cc1nc2c(c(NC(=O)N=S(N)(=O)c3ncc(C(C)(C)O)s3)c1C1CC1)CCC2` (single isomer, unassigned) [Compound 618a, (S) or (R)-N′-((3-cyclopropyl-2-methyl-6,7-dihydro-5H-cyclopenta[b]pyridin-4-yl)carbamoyl)-5-(2-hydroxypropan-2-yl)thiazole-2-sulfonimidamide], the IC50 under setting [1] is above 30000 nM.

As for `CC1(C)CCc2c1nc1c(c2NC(=O)N=S(N)(=O)c2sc(C(C)(O)CO)cc2F)CCC1` (single isomer, unassigned) [Compound 699b, (S, R) and (R, R) or (R, S) and (S, S)-5-(1,2-Dihydroxypropan-2-yl)-N′-((3,3-dimethyl-1,2,3,5,6,7-hexahydrodicyclopenta [b,e]pyridin-8-yl)carbamoyl)-3-fluorotliophene-2-sulfoni midamide], the IC50 under setting [2] was 8 to 40 nM. `CC(C)(O)c1ncc(S(N)(=O)=NC(=O)Nc2c3c(nc4c2CCC4(C)C)CCC3)s1` (single isomer, unassigned) [Compound 153b, (R) or (S)-N′-((3,3-dimethyl-1,2,3,5,6,7-hexahydro-dicyclopenta[b,e]pyridin-8-yl)carbamoyl)-2-(2-hydroxypropan-2-yl)thiazole-5-sulfonimidamide]: the IC50 under setting [3] fell in the range of 40 to 200 nM. In the case of `CCn1ccc([S@](N)(=O)=NC(=O)Nc2c(C)c(C(F)(F)F)nc3c2CCC3)n1` [Compound 731b], the IC50 under setting [4] was 200 to 1000 nM. Regarding `Cc1cc(C(C)(C)O)sc1S(N)(=O)=NC(=O)Nc1c2c(nc3c1CCC3)CCC2` (single isomer, unassigned) [Compound 695a, (S) or (R)-N′-((1,2,3,5,6,7-hexahydrodicyclopenta [b,e]pyridin-8-yl)carbamoyl)-5-(2-hydroxypropan-2-yl)-3-methylthiophene-2-sulfonimidamide], the IC50 under setting [1] was above 30000 nM. As for `CCc1c(CC(F)(F)F)nc2c(c1NC(=O)N=S(N)(=O)c1sc(C(C)(C)O)cc1F)CCC2` (single isomer, unassigned) [Example 640, (S) or (R)-N′-((3-ethyl-2-(2,2,2-trifluoroethyl)-6,7-dihydro-5H-cyclopenta[b]pyridin-4-yl)carbamoyl)-3-fluoro-5-(2-hydroxypropan-2-yl) thiophene-2-sulfonimidamide], under setting [5], the IC50 was in the range of 5000 to 30000 nM. With `CC(C)(O)c1cncc(S(N)(=O)=NC(=O)Nc2c3c(nc4c2CCC4(C)C)CCC3)c1` (stereo not drawn) [Compound 684, N′-((3,3-dimethyl-1,2,3,5,6,7-hexahydrodicyclopenta[b,e]pyridin-8-yl)carbamoyl)-5-(2-hydroxypropan-2-yl)pyridine-3-sulfonimidamide], the IC50 under setting [4] was 200 to 1000 nM. Turning to `Cc1c(C(F)(F)F)nc2c(c1NC(=O)N=S(N)(=O)c1ccn(C(C)C)n1)CCC2` (single isomer, unassigned) [Compound 628a, (S) or (R)-1-Isopropyl-N′-((3-methyl-2-(trifluoromethyl)-6,7-dihydro-5H-cyclopenta[b]pyridin-4-yl)carbamoyl)-1H-pyrazole-3-sulfonimidamide], the half-inhibitory concentration (IC50) under setting [1] was above 30000 nM.

Turning to `Cc1c(C2CCC2)nc2c(c1NC(=O)N=S(N)(=O)c1cnc(C(C)(C)O)s1)CCC2` (stereo not drawn) [Compound 649, N′-((2-cyclobutyl-3-methyl-6,7-dihydo-5H-cyclopenta[b]pyridin-4-yl)carbamoyl)-2-(2-hydroxypropan-2-yl)thiazole-5-sulfonimidamide], under setting [4], the IC50 was in the range of 5000 to 30000 nM. On the same count and under the same terms, with `Cc1c(C(F)(F)F)nc2c(c1NC(=O)N=S(N)(=O)c1ccn(C(C)C)n1)CCC2` (single isomer, unassigned) [Compound 628b, (R) or (S)-1-Isopropyl-N′-((3-methyl-2-(trifluoromethyl)-6,7-dihydro-5H-cyclopenta[b]pyridin-4-yl)carbamoyl)-1H-pyrazole-3-sulfonimidamide] the figure was 200 to 1000 nM. Consider `CCn1cc(F)c(S(N)(=O)=NC(=O)Nc2c3c(nc(C(F)(F)F)c2-c2ccccc2F)CCC3)n1` (single isomer, unassigned) [Example 780, (S) or (R)-1-ethyl-4-fluoro-N′-((3-(2-fluorophenyl)-2-(trifluoromethyl)-6,7-dihydro-5H-cyclopenta[b]pyridin-4-yl)carbamoyl)-1H-pyrazole-3-sulfonimidamide], for which, for the setting “Table B4, class symbols, read-out: hTHP-1 IC50”, the IC50 fell in the range of 200 to 1000 nM. As to `CC1(C)CCc2c1nc1c(c2NC(=O)NS(=N)(=O)c2cnc([C@@](C)(O)COCCOCCOCCOCCO)s2)CCC1` (stereo partly drawn) [Example 584, 2-((S)-1,14-dihydroxy-3,6,9,12-tetraoxapentadecan-14-yl)-N-((3,3-dimethyl-1,2,3,5,6,7-hexahydrodicyclopenta[b,e]pyridin-8-yl)carbamoyl)thiazole-5-sulfonimidamide], the IC50 (Homo sapiens, THP-1, Table B3, hTHP-1 assay, numeric values, read-out: IC50) was above 30000 nM. Take `Cc1c(C2CC2)nc2c(c1NC(=O)N=S(N)(=O)c1sc(C(C)(C)O)cc1F)CCC2` (single isomer, unassigned) [Compound 174b, (S) or (R)-N′-((2-cyclopropyl-3-methyl-6,7-dihydro-5H-cyclopenta[b]pyridin-4-yl)carbamoyl)-3-fluoro-5-(2-hydroxypropan-2-yl)thiophene-2-sulfonimidamide]: the IC50 under setting [3] is 40 to 200 nM. Take `CC(C)(O)c1nc(CO)c(S(N)(=O)=NC(=O)Nc2c3c(nc4c2CCC4)CCC3)s1` (single isomer, unassigned) [Compound 150a, (S) or (R)-N′-((1,2,3,5,6,7-hexahydrodicyclo-penta[b,e]pyridin-8-yl)carbamoyl)-4-(hydroxymethyl)-2-(2-hydroxypropan-2-yl)thiazole-5-sulfonimidamide]: the IC50 under setting [3] was 5000 to 30000 nM. As to `CCC1CCc2c1nc1c(c2NC(=O)N=S(N)(=O)c2cnc(C(C)(C)O)s2)CCC1` (single isomer, unassigned) [Compound 662d, (R, R) or (R, S) or (S, R) or (S, S)-N′-((3-Ethyl-1,2,3,5,6,7-hexaliydrodicyclopenta [b,e]pyridin-8-yl)caibamoyl)-2-(2-hydroxypropan-2-yl)thiazole-5-sulfonimidamide], under setting [2], the IC50 fell in the range of 5000 to 30000 nM. With `Cc1c(C(F)(F)F)nc2c(c1NC(=O)N=S(N)(=O)c1cnc(C(C)(C)O)s1)CCC2C` (single isomer, unassigned) [Example 706, (R, R) or (R, S)-N′-((3,7-dimethyl-2-(trifluoromethyl)-6,7-dihydro-5H-cyclopenta[b]pyridin-4-yl)carbamoyl)-2-(2-hydroxypropan-2-yl)thiazole-5-sulfonimidamide], the IC50 under setting [5] lay in the range of 200 to 1000 nM.

`CC(C)(O)c1ncc([S@](N)(=O)=NC(=O)Nc2c3c(nc(CC(F)(F)F)c2C2CC2)CCC3)s1` [Example 578, (R)-N′-((3-cyclopropyl-2-(2,2,2-trifluoroethyl)-6,7-dihydro-5H-cyclopenta[b]pyridin-4-yl)carbamoyl)-2-(2-hydroxypropan-2-yl)thiazole-5-sulfonimidamide]: the half-maximal inhibitory concentration (IC50) (Homo sapiens, THP-1, Table B3, hTHP-1 assay, class symbols, read-out: IC50) lay within 1000 to 5000 nM. For `CC(C)c1csc(S(N)(=O)=NC(=O)Nc2c3c(nc4c2CCC4)CCC3)c1` (stereo not drawn) [Compound 173, N′-((1,2,3,5,6,7-hexahydrodicyclopenta[b,e]pyridin-8-yl)carbamoyl)-4-isopropylthiophene-2-sulfonimidamide], the IC50 (Homo sapiens, THP-1, Table B1, class symbols, read-out: Average IC50 of compounds in hTHP-1 assay: hTHP-1 IC50) lay within 200 to 1000 nM. Consider `Cc1c(CC2CC2)nc2c(c1NC(=O)N=S(N)(=O)c1cc(C(C)(C)O)cs1)CCC2` (single isomer, unassigned) [Compound 665b, (R) or (S)-N′-((2-(cyclopropylmethyl)-3-methyl-6,7-dihydro-5H-cyclopenta[b]pyridin-4-yl)carbamoyl)-4-(2-hydroxypropan-2-yl)thiophene-2-sulfonimidamide], for which the IC50 under setting [4] was in the range of 1000 to 5000 nM. Same read-out and setting: with `Cc1c(C2CC2)nc(C2CC2)c(C)c1NC(=O)N=S(N)(=O)c1cc(C(C)(C)O)cs1` (single isomer, unassigned) [Compound 612b, (R) or (S)-N′-((2,6-dicyclopropyl-3,5-dimethylpyridin-4-yl)carbamoyl)-4-(2-hydroxypropan-2-yl)thiophene-2-sulfonimidamide] the figure was 1000 to 5000 nM. With `Cc1nc2c(c(NC(=O)N=S(N)(=O)c3cnc(C(C)(C)O)s3)c1C(C)C)CCC2` (single isomer, unassigned) [Compound 116a, (S) or (R)-2-(2-hydroxypropan-2-yl)-N′-((3-isopropyl-2-methyl-6,7-dihydro-5H-cyclopenta[b]pyridin-4-yl)carbamoyl)thiazole-5-sulfonimidamide], the IC50 (Homo sapiens, THP-1, Table B1, numeric bounds, read-out: Average IC50 of compounds in hTHP-1 assay: hTHP-1 IC50) is above 30000 nM. As to `Cc1sc(S(N)(=O)=NC(=O)Nc2c3c(nc4c2CCC4C)CCC3)nc1C(C)(C)O` (stereo not drawn) [Compound 104, 4-(2-Hydroxypropan-2-yl)-5-methyl-N′-((3-methyl-1,2,3,5,6,7-hexahydrodicyclopenta[b,e]pyridin-8-yl)carbamoyl)thiazole-2-sulfonimidamide], the IC50 under setting [3] was in the range of 200 to 1000 nM. As for `CC(C)(O)c1cc(Cl)c(S(N)(=O)=NC(=O)Nc2c3c(nc4c2CCC4)CCC3)s1` (stereo not drawn) [Compound 691, 3-Chloro-N′-((1,2,3,5,6,7-hexahydrodicyclopenta[b, e]pyridin-8-yl)carbamoyl)-5-(2-hydroxypropan-2-yl)thiophene-2-sulfonimidamide], the IC50 under setting [4] lay in the range of 1000 to 5000 nM. For `COCc1nc(C(C)(C)O)sc1S(N)(=O)=NC(=O)Nc1c2c(nc3c1CCC3)CCC2` (single isomer, unassigned) [Compound 689b, (R) or (S)-N′-((1,2,3,5,6,7-hexahydrodicyclopenta [b,e]pyridin-8-yl)carbamoyl)-2-(2-hydroxypropan-2-yl)-4-(methoxymethyl) thiazole-5-sulfonimidamide], the concentration for half-maximal inhibition (IC50) under setting [4] was in the range of 5000 to 30000 nM.
